Patent US11707440B2 (priority 2017, dated 2023)

Legend:
[1] = system: subjects with MDD at imminent risk for suicide; experiment: Beck Hopelessness Scale (BHS), […]2001; format: in vivo, human; conditions: for BHS total score change, Diff. of LS Means (SE) minus placebo: ANCOVA LOCF
Description: The BHS is a self-reported measure to assess one's level of negative expectations or pessimism regarding the future. It consists of 20 true-false items that examine the respondent's attitude over the past week by either endorsing a pessimistic statement or denying an optimistic statement. For every statement, each response is assigned a score of 0 or 1. The total BHS score is a sum of item responses and ranges from 0 to 20, with a higher score representing a higher level of hopelessness.

[2] = Description: This example provides an LC-MS/MS method for the determination of ketamine and norketamine in sodium heparin human plasma using ketamine-d4 and norketamine-d4 as the respective internal standards (IS).
[3] = system: female Sprague-Dawley rats, PCG/RSC of the brain; experiment: Single dose neurotoxicity study, intranasal instillation; conditions: single dose, 72 mg
Method: Esketamine HCl was instilled intranasally at doses of 0 (vehicle), 36, 54 or 72 mg (expressed as esketamine base) to female rats on a single day. The dose levels were obtained by 2, 3 or 4 subsequent intranasal instillations, respectively, into both nostrils at a volume of 50 μL per nostril. At each instillation, the second nostril was dosed immediately after the first nostril. The interval between subsequent instillations into both nostrils was 5 minutes.
The vehicle control group received 4 subsequent intranasal instillations of the vehicle into both nostrils (50 μL per nostril) with 5-minute intervals.
The injection volume was 5 mL/kg.
The vehicle- and the 36 and 54 mg-dosed groups consisted of 24 animals per group, while the 72 mg-dosed and positive control groups involved 30 animals per group. Four satellite animals were added to the esketamine HCl-dosed groups of main study animals for toxicokinetic (TK) purposes. In these animals the plasma exposure to esketamine was measured on the day of dosing at various time points up to and including 24 hours after the first instillation.
Prior to the perfusion, rats were anesthetized with isoflurane. After injection of 0.1 ml heparin, the blood of the rat was flushed out with a physiological saline solution by intraarterial insertion of a needle in the abdominal aorta. Thereafter the rat was perfused with glutaraldehyde 3% in potassium phosphate 0.09M and 1.4% sucrose. Due to logistic constraints at maximum 30 animals could undergo the whole-body perfusion procedure on a given day. Therefore, a staggered start of treatment was applied to all 5 groups of main study animals. Consequently, subgroups of 4 main study animals of the vehicle- and 36 and 54 mg-dosed groups, and 5 main study animals of the 72 mg-dosed and positive control groups, were dosed on 6 consecutive days, respectively.
The vehicle control, positive control, and esketamine HCl-dosed animals were sacrificed at either 48 hours (i.e., the first 12 or 15 rats per group) or 96 hours after the dose administration time (i.e., the last 12 or 15 rats per group). The brain tissue of the vehicle control-, positive control- and esketamine HCl-treated rats were processed at the same time and handled in the same way in batches of 4 or 5 animals per group.
Furthermore, clinical observations were recorded for the esketamine HCl-dosed rats on the day of dosing at 0 till 5 minutes, 15 and 30 minutes, and at 1, 2, 4, 6 hours post-dose, at the end of the working day and at 24 hours after the last instillation in the single dose study and on the first day of dosing, after one week and towards the end of the dosing period in the repeated dose study. Body weight and body weight gain were measured daily. Food consumption was measured weekly in the repeated dose study.
On the day of terminal kill, a complete physical examination was performed on the rats in fasted condition and body weight was recorded. The surviving animals were anaesthetized by inhalation of an isoflurane (IsoFlo® Zoetis, Belgium)/oxygen mixture and killed by exsanguination via the carotid artery. […] All terminally killed rats or those killed pre-terminally were perfused with 4% paraformaldehyde in the single dose study and with glutaraldehyde 3% in potassium phosphate buffer 0.09 M with 1.4% sucrose in the repeated dose study.
Brain tissue was sampled and processed routinely. The trimmed and embedded tissue was sectioned and stained with hematoxylin-eosin (HE). Histoprocessing and staining were carried out in three batches of 4 animals per group (each batch thus containing 4 animals from vehicle control-, positive control- and the three esketamine HCl-treated groups). In the single dose study duplicate brain sections were stained with Fluoro-Jade (FJ).
All tissues showing gross abnormalities were examined macroscopically.

[4] = system: elderly subjects with TRD; format: in vivo, human; conditions: each dosing day
Description: The Modified Observer's Assessment of Alertness/Sedation (MOAA/S) was used to measure treatment-emergent sedation with correlation to levels of sedation defined by the American Society of Anesthesiologists (ASA) continuum. The MOAA/S scores range from 0 (No response to painful stimulus; corresponds to ASA continuum for general anesthesia) to 5 (Readily responds to name spoken in normal tone [awake]; corresponds to ASA continuum for minimal sedation). The proportion of subjects with sedation was <4% for the esketamine group for each dosing day.

subjects with TRD = conditions: human, in vivo, other: intranasal
Method: The Clinician Administered Dissociative States Scale (CADSS) was measured prior to the start of each dose, at 40 minutes, and 1.5 hours postdose.

[5] = system: patients with treatment-resistant depression (TRD); experiment: BPRS positive symptom subscale, Example 7; parameters: species or system human; conditions: in vivo
Method: Adverse events were monitored throughout the study. Other safety assessments (i.e., laboratory tests, vital signs, physical examination) were performed at pre-specified time points. Vital signs, the Clinician Administered Dissociative States Scale (CADSS; Bremner, “Measurement of dissociative states with the clinician-administered dissociative states scale (CADSS)”, J. Traumatic Stress, 1998, 11(1):125-136), and the 4-item positive symptom subscale from the Brief Psychiatric Rating Scale (BPRS; Overall, “The Brief Psychiatric Rating Scale. Psychological Reports”, 1962, 10:799-812) were assessed pre-dose, at 40 minutes, and 2 hours post-dose.

[6] = Day 1(DB): 4H, LOCF, ITT analysis set
[7] = End Point(DB), LOCF, ITT analysis set

Row | Compound | BHS total score, Median (Range) ([1]; Baseline(DB), predose Day 1, ITT analysis set) | BHS total score change, Diff. of LS Means (SE) minus placebo ([1]; Day 1(DB): 4H) | BHS total score change from baseline, Mean (SD) [1, 6] | BHS total score change from baseline, Median (Range) [1, 6] | BHS total score, Median (Range) [1, 6] | BHS total score change, Diff. of LS Means (SE) minus placebo ([1]; End Point(DB)) | BHS total score change from baseline, Mean (SD) [1, 7] | BHS total score change from baseline, Median (Range) [1, 7] | BHS total score, Mean (SD) [1, 7] | BHS total score, Median (Range) [1, 7] | QC sample freeze/thaw stability ([2]; freeze (−20° C.)/thaw (room temperature)) | QC sample bench-top stability ([2]; human plasma, room temperature) | AUC-based safety margin compared with the maximum 84 mg clinical dose [3] | Cmax-based safety margin compared with the maximum 84 mg clinical dose [3] | Proportion of subjects with sedation (post dose MOAA/S score of ≤3) [4] | Time to resolution of dissociative and perceptual change symptoms (CADSS) (subjects with TRD) | Symptoms suggestive of psychosis (BPRS-positive assessment) [5]
1 | CN[C@]1(c2ccccc2Cl)CCCCC1=O [Esketamine 84 mg] | 17.0 (9; 20) | −1.5 (1.47) | −4.1 (5.63) | −2.0 (−16; 2) | 14.0 (0; 20) | −2.3 (1.66) | −10.3 (5.51) | −11.0 (−19; 0) | 6.2 (5.96) | 4.0 (0; 20) |  |  |  |  |  |  | 
2 | CN[C@]1(c2ccccc2Cl)CCCCC1=O [esketamine, (S)-2-(2-chlorophenyl)-2-(methylamino)cyclohexanone] |  |  |  |  |  |  |  |  |  |  | 3 freeze (−20° C.)/thaw (room temperature) cycles | 18 hours at room temperature | ~86 fold | approximately 60 fold | < 4% | ≤ 1.5 hours postdose | No participant manifested symptoms suggestive of psychosis
